From patent US20140041337A1, “Food Packaging Method” (Kureha Corporation, priority 2007, published 2014)

Tested on: bacteria
Experiment: Summary of bacterial counting, Tables 1 to 4
Assay type: cell-based
Settings: carbon dioxide gas 10 to 45 cm^3 per 100 g of the food (volume at 0° C. and 1 atm)
Experimental: The bacteria counts were determined as follows. The sliced beef was diluted with a tenfold amount of sterile physiological saline to give a test liquid. One (1) ml of the test liquid was placed in sterile Petri dishes. For the viable bacteria count, a standard agar medium (manufactured by NISSUI PHARMACEUTICAL CO., LTD.) was added and the bacteria were cultured at 37° C. for 2 days. For the coliform bacteria count, a desoxycholate agar medium (manufactured by NISSUI PHARMACEUTICAL CO., LTD.) was added and the bacteria were cultured at 37° C. for 1 day. The colonies that grew were counted. The psychrophilic bacteria count was determined as follows. The sliced pork was diluted with a tenfold amount of sterile physiological saline to give a test liquid. One (1) ml of the test liquid was placed in sterile Petri dishes. A YGA agar medium (manufactured by NISSUI PHARMACEUTICAL CO., LTD.) was added and the bacteria were cultured at 10° C. for 5 days. The colonies that grew were counted.

O=C=O [carbon dioxide gas, carbon dioxide]
bacterial growth: inhibits bacterial growth
